# Measurements from US9663486B2, “Selectively substituted quinoline compounds” (EISAI R&D MANAGEMENT CO., LTD., priority 2013, dated 2017).
# Target: T1, Human TLR7 (Homo sapiens, UniProt Q9NYK1)
# T1 construct: stably and individually express human TLR4, TLR7 or TLR9 full-length ORF cDNAs; host or cells: HEK-293 (ATCC) with ELAM-1 NF-kappaB luciferase reporter
# T1 sequence (Q9NYK1 27-1049): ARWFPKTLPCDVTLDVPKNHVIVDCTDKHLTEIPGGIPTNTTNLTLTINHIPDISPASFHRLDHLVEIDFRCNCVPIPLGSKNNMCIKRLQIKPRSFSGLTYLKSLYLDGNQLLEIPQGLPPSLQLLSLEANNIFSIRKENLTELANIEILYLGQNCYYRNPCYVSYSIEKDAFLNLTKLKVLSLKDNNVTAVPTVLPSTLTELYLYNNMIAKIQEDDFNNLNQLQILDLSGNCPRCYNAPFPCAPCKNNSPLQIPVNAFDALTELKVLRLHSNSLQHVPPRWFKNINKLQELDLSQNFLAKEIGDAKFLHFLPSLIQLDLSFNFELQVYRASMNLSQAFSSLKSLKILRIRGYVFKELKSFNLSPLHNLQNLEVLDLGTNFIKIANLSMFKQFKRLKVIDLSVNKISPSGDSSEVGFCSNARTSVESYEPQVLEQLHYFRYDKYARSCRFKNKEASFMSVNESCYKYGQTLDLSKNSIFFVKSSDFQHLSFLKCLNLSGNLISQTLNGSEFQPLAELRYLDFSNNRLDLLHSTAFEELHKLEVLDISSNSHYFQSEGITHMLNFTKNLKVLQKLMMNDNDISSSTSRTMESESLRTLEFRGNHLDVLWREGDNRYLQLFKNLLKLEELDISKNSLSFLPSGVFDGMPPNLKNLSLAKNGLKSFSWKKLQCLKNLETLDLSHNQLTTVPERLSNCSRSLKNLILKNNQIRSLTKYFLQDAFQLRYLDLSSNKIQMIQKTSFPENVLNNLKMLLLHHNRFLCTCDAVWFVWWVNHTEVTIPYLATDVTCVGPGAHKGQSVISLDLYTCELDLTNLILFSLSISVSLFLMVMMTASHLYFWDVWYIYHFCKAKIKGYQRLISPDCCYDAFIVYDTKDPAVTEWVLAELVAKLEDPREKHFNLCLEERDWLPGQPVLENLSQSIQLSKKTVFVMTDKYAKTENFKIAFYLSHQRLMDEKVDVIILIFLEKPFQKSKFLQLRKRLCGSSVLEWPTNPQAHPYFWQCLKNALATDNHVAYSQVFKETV
# Assay: HEK-293 NFkB-luciferase reporter assay, CL097 stimulation
# Assay type: cell-based
# Settings: ligand CL097
# Text: HEK-293 cells (ATCC) were engineered to stably express a NF-kappaB transcription factor inducible E-selectin (ELAM-1) luciferase reporter derived from the plasmid pGL3 (Promega) containing base pairs −2241 bp to −254 bp from the promoter of the human E-selectin gene (Accession No. NM_000450). These cells were then subsequently engineered to stably and individually express human TLR4, TLR7 or TLR9 full-length ORF cDNAs. Human TLR4 cDNA (Accession No. NM_138554) was cloned into pcDNA 3.0 expression vector (Invitrogen). TLR4 transfected cells were also engineered to express human MD-2 co-receptor [MD-2 cDNA (Accession No. NM_015364) was cloned into the pEF-BOS vector] and were supplemented with 10 nM soluble CD14 (R&D Systems) in the media to optimize LPS responsiveness. Human TLR9 cDNA (Accession No. NM_017442) was cloned into the pBluescript II KS vector (Agilent). Human TLR7 cDNA (Accession No. NM_016562) was obtained from OriGene. HEK-293 cells stably expressing human TLR8 (Accession No. NM_138636) or mouse TLR7 (Accession No. NM_133211) were purchased from InvivoGen and were then stably transfected with pNiFty2(NF-kappaB)-luciferase reporter plasmid (InvivoGen). Each cell type was plated in Dulbecco's modified Eagle's medium (DMEM) containing 10% fetal bovine serum (FBS) at a density of 2.22×10^5 cells/ml into a 384-well plate and incubated for 2 days at 37° C., 5% CO2. […]
smiles,measurement,value
"C[C@H]1C[C@@H](N)CN(c2ccc(C#N)c3ncccc23)C1 [ER-888840, 5-((3R,5S)-3-amino-5-methylpiperidin-1-yl)quinoline-8-carbonitrile]",IC50,0.2 nM
